The source of these data is patent US5424196A, “Enzymatic process for preparing 7-aminocephalosporanic acid and derivatives” (Antibioticos S.p.A., priority 1990, dated 1995).

Assay [1] has as its target T1, D-amino acid oxidase (DAO; EC-1.4.3.3) from Rhodotorula gracilis ATCC 26217 (Rhodotorula toruloides, UniProt P80324).
T1 construct: production of Rhodotorula gracilis cells of high DAO enzyme content; made in house; host or cells: Rhodotorula gracilis ATCC 26217 (natural producer, aerobic fermentation)
T1 sequence (P80324 25-368): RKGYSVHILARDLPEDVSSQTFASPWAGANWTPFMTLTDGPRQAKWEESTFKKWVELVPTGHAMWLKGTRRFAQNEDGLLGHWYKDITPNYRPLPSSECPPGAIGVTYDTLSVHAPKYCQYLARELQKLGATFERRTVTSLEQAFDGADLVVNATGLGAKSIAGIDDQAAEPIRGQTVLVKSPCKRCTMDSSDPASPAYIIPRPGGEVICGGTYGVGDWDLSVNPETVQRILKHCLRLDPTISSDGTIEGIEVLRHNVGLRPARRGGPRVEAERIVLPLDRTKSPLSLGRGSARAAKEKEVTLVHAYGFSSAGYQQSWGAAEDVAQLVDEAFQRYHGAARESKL
Kind of assay: Substrate specificity (Km) of D-amino acid oxidase. Type of assay: biochemical. As to conditions: compared with D-alanine, the specific substrate for this enzyme. The method, then: The activity of the D-amino acid oxidase enzyme is evaluated by measuring the H2 O2 quantity evolved on reacting the enzyme on a substrate of D-alanine in 100 mM phosphate buffer at pH 7.5 saturated with oxygen at 37° C.
The H2 O2 is determined kinetically using a peroxidase-based reactant, 4-aminophenazone and 2,4-dichlorophenolsulphonate by the modified Trinder reaction (J. Clin. Path. 22, 246, 1969). The red colour which forms (quinonimine) is proportional to the hydrogen peroxide evolved in the test and is measured spectrophotometrically at 510 nm.
One unit of D-amino acid oxidase is that quantity of enzyme (free or immobilized) which under the conditions used in the method produces one μmole of H2 O2 per minute.

The target of assay [2] is T1, D-amino acid oxidase (DAO; EC-1.4.3.3) from Rhodotorula gracilis ATCC 26217. The experiment in a line: Dissociation constant of the FAD cofactor from D-amino acid oxidase. Type of assay: binding. As to conditions: read-out: dissociation constant (bond with the FAD).

As to `CC(=O)OCC1=C(C(=O)O)N2C(=O)[C@@H](NC(=O)CCC[C@@H](N)C(=O)O)[C@H]2SC1` [Cephalosporin C], in assay [1], the Km entry is reported as “very similar to those encountered for D-alanine”.
In the case of `Cc1cc2nc3c(=O)[nH]c(=O)nc-3n(C[C@H](O)[C@H](O)[C@H](O)COP(=O)(O)OP(=O)(O)OC[C@H]3O[C@@H](n4cnc5c(N)ncnc54)[C@H](O)[C@@H]3O)c2cc1C` [FAD], the Kd in assay [2] amounted to 22 nM.
